US7700584B2 (Hangzhou Minsheng Pharmaceuticals Co., Ltd., priority 2004, dated 2010)
pIC50: −log10 of the molar value. ≈ marks a conversion by molar mass, not a printed value. Structures can show the parent of a compound that is named as a salt. Where two headings read alike, the source gives them in different places.

Legend:
[1] = system: U-937 human histocytic lymphoma; experiment: In vitro inhibition rate to tumor cells (MTT), U-937; assay type: cell-based; conditions: for inhibition rate, Results (%) U-937: 50 μg/ml, hydrochloride; for inhibition at 50 µg/mL: Homo sapiens, U-937, 50 μg/ml, read-out: inhibition rate, Results (%) U-937
[2] = system: Bel-7402 human hepatic carcinoma; experiment: In vitro inhibition rate to tumor cells (MTT), Bel-7402; assay type: cell-based; conditions: for inhibition rate, Results (%) Bel-7402: 50 μg/ml, hydrochloride; for inhibition at 50 µg/mL: Homo sapiens, Bel-7402, 50 μg/ml, read-out: inhibition rate, Results (%) Bel-7402
[3] = system: MCF-7 human mammary adenocarcinoma; experiment: In vitro inhibition rate to tumor cells (MTT), MCF-7; assay type: cell-based; conditions: for inhibition rate, Results (%) MCF-7: 50 μg/ml, hydrochloride; for inhibition at 50 µg/mL: Homo sapiens, MCF7, 50 μg/ml, read-out: inhibition rate, Results (%) MCF-7
[4] = system: SMMC-7721 human hepatic carcinoma; experiment: In vitro inhibition rate to tumor cells (MTT), SMMC-7721; assay type: cell-based; conditions: for inhibition rate, Results (%) SMMC-7721: 50 μg/ml, hydrochloride; for inhibition at 50 µg/mL: Homo sapiens, SMMC-7721, 50 μg/ml, read-out: inhibition rate, Results (%) SMMC-7721
[5] = system: HL-60 human promyelocytic leukemia; experiment: In vitro inhibition rate to tumor cells (MTT), HL-60; assay type: cell-based; conditions: for inhibition rate, Results (%) HL-60: 50 μg/ml, hydrochloride; for inhibition at 50 µg/mL: Homo sapiens, HL-60, 50 μg/ml, read-out: inhibition rate, Results (%) HL-60
[6] = system: Hela human cervical carcinoma; experiment: In vitro inhibition rate to tumor cells (MTT), Hela; assay type: cell-based; conditions: 50 μg/ml; for inhibition rate, Results (%) Hela: hydrochloride; for inhibition at 50 µg/mL: Homo sapiens, HeLa, read-out: inhibition rate, Results (%) Hela
[7] = system: LLC mouse Lewis lung carcinoma; experiment: In vitro inhibition rate to tumor cells (MTT), LLC; assay type: cell-based; conditions: 50 μg/ml
[8] = system: Hela human cervical carcinoma; experiment: In vitro anti-tumor IC50 (MTT), Hela; assay type: cell-based; conditions: Table 4
[9] = system: U-937 human histocytic lymphoma; experiment: In vitro anti-tumor IC50 (MTT), U-937; assay type: cell-based; conditions: Table 4
Experimental: (§1) (1) Single cell suspension was seeded into 96-well plates (the cells was diluted in the PRMI-1640 minimum medium to 3×10^4 cells/ml, […] diluted cells/well). […] The experiments were performed in quadruplicate.
(§2) (2) The medium was removed. Solutions of the anti-tumor agents (50 compounds) were prepared in a freshly prepared medium at serial concentrations. […] of the solution was added into each well. Incubation was continued for 48 hours.
(§3) (3) 20 ug of 2 mg/ml MTT was added into each well, and incubated for 4 hours.
(§4) (4) The medium was removed from the well. The microplates were swiftly turned down to throw-off the medium. […] of DMSO was added into each well, and vortexed at room temperature for 10 minutes.
(§5) (5) OD value (λ=570 nm) was measured with an Enzyme-Linked Detector.
(§6) (6) The graph of cell vitality was plotted, and IC50 was calculated.

[10] = system: MCF-7 human mammary adenocarcinoma; experiment: In vitro anti-tumor IC50 (MTT), MCF-7; assay type: cell-based; conditions: Table 4
Experimental: as §1, §2, §3, §4, §5, §6

[11] = system: HL-60 human promyelocytic leukemia; experiment: In vitro anti-tumor IC50 (MTT), HL-60; assay type: cell-based; conditions: Table 4
Experimental: as §1, §2, §3, §4, §5, §6

[12] = target: T1, HIV-1 reverse transcriptase (Human immunodeficiency virus type 1 group M subtype B, UniProt P04585); experiment: Screening for the in vitro activity against the HIV-1 reverse transcriptase; assay type: biochemical
T1 construct: purchased
Experimental: Principle of the test: The template to which the HIV-1 reverse transcriptase interacts was covered onto the enzyme-lined template. In the optimal reaction conditions and system, HIV-1 RT will put the substrate comprising Biotin-dUTP onto the reaction template. The activity of the enzyme was measured as the amount of the integrating Biotin-dUTP in the reaction by using streptavidin-labeled horseradish peroxidase. Adding the sample to the reaction system can identify inhibitor of the enzyme.
1. HIV-1 RT: commercially available.
2. Treatment of the samples: Before use, the sample was dissolved in DMSO at a suitable concentration, then serially diluted (5×) with double distilled water, five serial dilutions per sample.
4. Methods: The diluted sample was added into the reaction buffer containing Biotin-dUTP and the genetic engineered target enzyme, and incubated in the optimal reaction conditions. A streptavidin-labeled horseradish peroxidase was added to visual the system, and OD450 was measured.

293 cells = experiment: Cell status of 293 cells treated with sample alone (herpes virus screening); conditions: 200 μg/ml, 24 hrs
[13] = target: T2, HIV-1 integrase (HIV-1 IN) (Human immunodeficiency virus type 1 group M subtype B, UniProt P04585); experiment: Screening for the activity against HIV-1 integrase; assay type: biochemical; conditions: initial concentration 100 μg/ml; read-out: IC50
T2 construct: a purified HIV-1 integrase was added into each well; purchased
Experimental: Principle of the test: A synthetic oligonucleotide of 30 nt was used as the donor substrate. A synthetic oligonucleotide of 20 nt was used as the target substrate. A 96-well plate was covered by the donor substrate, and a purified HIV-1 integrase was added into each well. ELISA was performed to measure the product of the target DNA chain transfer. A biotin-labeled alkali phosphatase was used to visual the system. OD value was measured by an Enzyme-linked Detector. Add a sample into the reaction system for screening the inhibitor of the enzyme.
1. HIV-1 IN: commercially available.
2. Treatment of the samples: Before use, the sample was dissolved in water or DMSO at a suitable concentration, then serially diluted (5×), four serial dilutions per sample. The stock solutions of two samples were 100-fold diluted with DMSO, then 5-fold diluted, four serial dilutions per sample. Positive control: S-y, provided by Shanghai Organic Chemistry Institute.
3. The donor substrate and target substrate: synthesized by Shanghai Biological Engineering Company (Shanghai Shenggong).
4. Methods: The diluted sample was added into a 96-well plate covered by the donor substrate, and then added into the reaction buffer containing the genetic engineered target enzyme and biotin-target substrate, incubated in the optimal reaction conditions. A biotin-labeled alkali phosphatase was used to visual the system to determine the absorbance at 450 nm (OD450).

CC(C)C1CC23OC1(O)C/C(=C\Nc1ccc(O)cc1)C2CCC3C (stereo not drawn) [Compound 6, Curcumol p-hydroxy aniline hydrochloride]
inhibition rate, Results (%) U-937 ([1]; Table 1): 90.92% | inhibition rate, Results (%) U-937 ([1]; Table 2 (repeated screening)): 94.12% | inhibition at 50 µg/mL ([1]; Table 3 (repeated screening)): 94.1% | inhibition rate, Results (%) Bel-7402 ([2]; Table 1): 81.84% | inhibition rate, Results (%) Bel-7402 ([2]; Table 2 (repeated screening)): 81.84% | inhibition at 50 µg/mL ([2]; Table 3 (repeated screening)): 83.6% | inhibition rate, Results (%) MCF-7 ([3]; Table 1): 91.89% | inhibition rate, Results (%) MCF-7 ([3]; Table 2 (repeated screening)): 91.89% | inhibition at 50 µg/mL ([3]; Table 3 (repeated screening)): 94.1% | inhibition rate, Results (%) SMMC-7721 ([4]; Table 1): 86.12% | inhibition rate, Results (%) SMMC-7721 ([4]; Table 2 (repeated screening)): 86.12% | inhibition at 50 µg/mL ([4]; Table 3 (repeated screening)): 87.1% | inhibition rate, Results (%) HL-60 ([5]; Table 1): 93.21% | inhibition rate, Results (%) HL-60 ([5]; Table 2 (repeated screening)): 93.21% | inhibition at 50 µg/mL ([5]; Table 3 (repeated screening)): 95.5% | inhibition rate, Results (%) Hela ([6]; Table 1): 95.26% | inhibition rate, Results (%) Hela ([6]; Table 2 (repeated screening)): 95.26% | inhibition at 50 µg/mL ([6]; Table 3 (repeated screening)): 92.3% | inhibition rate, Results (%) LLC ([7]; Table 1, hydrochloride): 88.23% | inhibition rate, Results (%) LLC ([7]; Table 2 (repeated screening), hydrochloride): 87.02% | inhibition at 50 µg/mL ([7]; Mus musculus, Lewis lung carcinoma, Table 3 (repeated screening)): 85% | IC50 (ug/ml) against tumor cell lines, Hela ([8]; hydrochloride): 0.35 µg/mL | IC50 (ug/ml) against tumor cell lines, U-937 ([9]; hydrochloride): 0.56 µg/mL | IC50 (ug/ml) against tumor cell lines, MCF ([10]; hydrochloride): 1.10 µg/mL | IC50 (ug/ml) against tumor cell lines, HL-60 ([11]; hydrochloride): 0.51 µg/mL | pIC50 ([12]; initial concentration 200 μg/ml): < 3.23 | Cytopathy and cell status, Sample (293 cells): Good

CC(C)C1CC23OC1(O)CC(=CN1CCNCC1)C2CCC3C (stereo not drawn) [Compound 7, Curcumol piperazine]
inhibition at 50 µg/mL ([1]; Table 1): 93% | inhibition at 50 µg/mL ([1]; Table 2 (repeated screening)): 90% | inhibition at 50 µg/mL ([1]; Table 3 (repeated screening)): 91.2% | inhibition at 50 µg/mL ([2]; Table 1): 55.4% | inhibition at 50 µg/mL ([2]; Table 2 (repeated screening)): 60.2% | inhibition at 50 µg/mL ([2]; Table 3 (repeated screening)): 65.2% | inhibition at 50 µg/mL ([3]; Table 1): 88.3% | inhibition at 50 µg/mL ([3]; Table 2 (repeated screening)): 85% | inhibition at 50 µg/mL ([3]; Table 3 (repeated screening)): 84.1% | inhibition at 50 µg/mL ([4]; Table 1): 3.34% | inhibition at 50 µg/mL ([4]; Table 2 (repeated screening)): 1.23% | inhibition at 50 µg/mL ([5]; Table 1): 90.6% | inhibition at 50 µg/mL ([5]; Table 2 (repeated screening)): 91% | inhibition at 50 µg/mL ([5]; Table 3 (repeated screening)): 90.2% | inhibition at 50 µg/mL ([6]; Table 1): 90.4% | inhibition at 50 µg/mL ([6]; Table 2 (repeated screening)): 89.3% | inhibition at 50 µg/mL ([6]; Table 3 (repeated screening)): 89.1% | inhibition rate, Results (%) LLC ([7]; Table 1): 85.42% | inhibition rate, Results (%) LLC ([7]; Table 2 (repeated screening)): −2.99% | inhibition rate, Results (%) LLC ([7]; Table 3 (repeated screening)): −3.66% | IC50 ([8]; Homo sapiens, HeLa, read-out: IC50 (ug/ml) against tumor cell lines, Hela): 0.6 µg/mL (≈ 1.87 µM) | IC50 ([9]; Homo sapiens, U-937, read-out: IC50 (ug/ml) against tumor cell lines, U-937): 0.76 µg/mL (≈ 2.37 µM) | IC50 ([10]; Homo sapiens, MCF7, read-out: IC50 (ug/ml) against tumor cell lines, MCF): 3.2 µg/mL (≈ 9.99 µM) | IC50 ([11]; Homo sapiens, HL-60, read-out: IC50 (ug/ml) against tumor cell lines, HL-60): 1.61 µg/mL (≈ 5.02 µM) | pIC50 ([12]; IC50, initial concentration 200 μg/ml): < 3.20 | inhibition at 100 µg/mL [13]: < 50% | Cytopathy and cell status, Sample (293 cells): Good
